Results as given in paper PMC3409642 (Pharmaceutical research, 2012).

Each compound was assayed against T1, UGT1A9 (Homo sapiens, UniProt O60656) (assay: Kinetic profiling of glucuronidation by expressed human UGT1A9). Settings: human, expressed human UGT1A9 (Supersomes), pH 7.4.
T1 sequence (O60656 26-530): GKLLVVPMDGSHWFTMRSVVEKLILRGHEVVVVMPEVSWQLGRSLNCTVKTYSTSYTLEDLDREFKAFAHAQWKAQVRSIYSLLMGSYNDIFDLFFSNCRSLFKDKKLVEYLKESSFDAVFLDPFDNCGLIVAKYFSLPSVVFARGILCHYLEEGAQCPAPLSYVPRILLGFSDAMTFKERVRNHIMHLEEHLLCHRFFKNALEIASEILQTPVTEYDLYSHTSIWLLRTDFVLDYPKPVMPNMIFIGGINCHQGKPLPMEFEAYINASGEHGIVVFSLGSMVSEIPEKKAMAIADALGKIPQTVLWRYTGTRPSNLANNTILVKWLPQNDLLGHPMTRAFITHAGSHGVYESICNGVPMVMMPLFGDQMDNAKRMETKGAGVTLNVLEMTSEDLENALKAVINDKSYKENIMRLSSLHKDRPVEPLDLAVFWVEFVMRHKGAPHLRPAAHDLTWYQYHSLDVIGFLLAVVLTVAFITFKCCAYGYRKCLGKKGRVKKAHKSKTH

Row | SMILES | Km
1 | O=C1C[C@@H](c2ccc(O)cc2)Oc2cc(O)cc(O)c21 [compound 27, Narigenin] | 3.34 µM

Same assay, conditions: log of experimental CLint (μl/mg/min)

Row | SMILES | Log (CLint) (Actual)
2 | COc1cc(/C=C/C(=O)CC(=O)/C=C/c2ccc(O)c(OC)c2)ccc1O [compound 15, Curcumin] | 1.74
3 | COc1cc(/C=C/C(O)=C/C(=O)/C=C/c2ccc(O)cc2)ccc1O [compound 16, Demethoxycurcumin] | 1.14
4 | O=C(/C=C/c1ccc(O)cc1)CC(=O)/C=C/c1ccc(O)cc1 [compound 17, Bisdemethoxycurcumin] | 0.90
5 | CC/C(=C(\c1ccc(O)cc1)c1ccc(OCCNC)cc1)c1ccccc1 [compound 19, Endoxifen] | 0.82
6 | O=C1OC[C@H](Cc2cccc(O)c2)[C@H]1Cc1cccc(O)c1 [compound 20, Enterolactone] | 1.96
7 | O=C(c1ccc(OCCN2CCCCC2)cc1)c1c(-c2ccc(O)cc2)sc2cc(O)ccc12 [compound 22, Raloxifene, reference compound] | 1.31
8 | O=C1C[C@@H](c2ccc(O)cc2)Oc2cc(O)cc(O)c21 [compound 27, Narigenin] | 3.18
9 | O=c1cc(-c2ccccc2O)oc2ccccc12 [compound 28, 2′-Hydroxyflavone] | 2.27
10 | COc1ccc(-c2oc3cc(O)cc(O)c3c(=O)c2OC)cc1O [compound 29, 3,4′-Dimethoxy-5,7,3′-trihydroxyflavone] | 3.66
11 | COc1ccc(-c2oc3cc(O)cc(O)c3c(=O)c2OC)cc1OCc1ccccc1 [compound 30, 3′-Benzyloxy-5,7-dihydroxy-3,4′-dimethoxyflavone] | 3.22
12 | O=c1cc(-c2cccc(O)c2)oc2ccccc12 [compound 31, 3′-Hydroxyflavone] | 2.66
13 | O=c1cc(-c2ccc(O)cc2)oc2ccccc12 [compound 32, 4′-Hydroxyflavone] | 1.83
14 | COc1cc(-c2cc(=O)c3c(O)cc(O)cc3o2)cc(OC)c1OC [compound 33, 5,7-Dihydroxy-3′,4′,5′-trimethoxyflavone] | 2.93
15 | O=c1cc(-c2ccc(O)c(O)c2)oc2ccc(O)cc12 [compound 35, 6,3′,4′-Trihydroxyflavone] | 3.54
16 | O=c1cc(-c2ccccc2)oc2cc(O)c(O)cc12 [compound 37, 6,7-Dihydroxyflavone] | 2.96
17 | O=c1cc(-c2ccccc2)oc2ccc(O)cc12 [compound 38, 6-Hydroxyflavone] | 1.53
18 | COc1c(O)cc2oc(-c3ccc(O)c(O)c3)cc(=O)c2c1O [compound 39, 6-Methoxyluteolin] | 3.22
19 | O=c1cc(-c2ccccc2O)oc2cc(O)cc(O)c12 [compound 40, 5,7,2′-Trihydroxyflavone] | 3.57
20 | O=c1cc(-c2ccccc2O)oc2cc(O)ccc12 [compound 42, 7,2′-Dihydroxyflavone] | 2.77
21 | O=c1cc(-c2cccc(O)c2)oc2cc(O)ccc12 [compound 43, 7,3′-Dihydroxyflavone] | 2.74
22 | COc1ccccc1-c1cc(=O)c2ccc(O)cc2o1 [compound 44, 7-Hydroxy-2′-methoxyflavone] | 3.00
23 | Cc1c(-c2ccccc2)oc2cc(O)ccc2c1=O [compound 45, 7-Hydroxy-3-methylflavone] | 3.30
24 | COc1ccc(-c2cc(=O)c3ccc(O)cc3o2)cc1 [compound 47, 7-Hydroxy-4′-methoxyflavone] | 2.36
25 | O=c1cc(-c2ccccc2)oc2cc(O)ccc12 [compound 49, 7-Hydroxyflavone] | 3.13
26 | COc1c(O)cc(O)c2c(=O)cc(-c3ccccc3)oc12 [compound 58, Wogonin] | 3.60

Row | SMILES | Log (CLint) (Actual)
27 | O=c1c(O)c(-c2ccccc2O)oc2ccccc12 [compound 59, 3,2′-Dihydroxyflavone] | 1.89
28 | O=c1c(O)c(-c2cccc(O)c2)oc2ccccc12 [compound 60, 3,3′-Dihydroxyflavone] | 4.44
29 | O=c1c(O)c(-c2ccccc2)oc2cccc(O)c12 [compound 61, 3,5-Dihydroxyflavone] | 3.87
30 | O=c1c(O)c(-c2ccc(O)cc2)oc2ccc(O)cc12 [compound 62, 3,6,4′-Trihydroxyflavone] | 4.34
31 | O=c1c(O)c(-c2ccc(O)c(O)c2)oc2ccccc12 [compound 63, 3,3′,4′-Trihydroxyflavone] | 4.34
32 | Cc1ccc2oc(-c3ccccc3)c(O)c(=O)c2c1 [compound 66, 3-Hydroxy-6-methylflavone] | 5.04
33 | COc1cccc(-c2oc3ccccc3c(=O)c2O)c1OC [compound 71, 3-Hydroxy-2′,3′-dimethoxyflavone] | 3.92
34 | COc1ccccc1-c1oc2ccccc2c(=O)c1O [compound 72, 3-Hydroxy-2′-methoxyflavone] | 4.25
35 | COc1cccc(-c2oc3ccccc3c(=O)c2O)c1 [compound 73, 3-Hydroxy-3′-methoxyflavone] | 4.66
36 | COc1ccc(-c2oc3ccccc3c(=O)c2O)cc1 [compound 74, 3-Hydroxy-4′-methoxyflavone] | 4.51
37 | COc1cc(OC)c2c(=O)c(O)c(-c3ccccc3)oc2c1 [compound 75, 3-Hydroxy-5,7-dimethoxyflavone] | 4.40
38 | COc1cccc2oc(-c3ccccc3)c(O)c(=O)c12 [compound 76, 3-Hydroxy-5-methoxyflavone] | 4.36
39 | COc1ccc(-c2oc3ccc(OC)cc3c(=O)c2O)cc1 [compound 77, 3-Hydroxy-6,4′-dimethoxyflavone] | 4.71
40 | COc1ccc2oc(-c3ccccc3)c(O)c(=O)c2c1 [compound 78, 3-Hydroxy-6-methoxyflavone] | 4.86
41 | COc1ccc(-c2oc3cc(OC)ccc3c(=O)c2O)cc1 [compound 79, 3-Hydroxy-7,4′-dimethoxyflavone] | 4.66
42 | COc1ccc2c(=O)c(O)c(-c3ccccc3)oc2c1 [compound 80, 3-Hydroxy-7-methoxyflavone] | 4.57
43 | O=c1c(O)c(-c2ccccc2)oc2ccccc12 [compound 81, 3-Hydroxyflavone] | 3.84
44 | Cc1ccc2oc(-c3ccc4c(c3)OCO4)c(O)c(=O)c2c1 [compound 82, 3-Hydroxy-6-methyl-3′,4′-methylenedioxyflavone] | 4.96
45 | O=c1c(O)c(-c2ccccc2O)oc2cc(O)cc(O)c12 [compound 83, Datiscetin] | 2.00
46 | COc1cc(-c2oc3cc(O)ccc3c(=O)c2O)ccc1O [compound 86, Geraldol] | 3.60
47 | O=c1c(O)c(-c2ccc(O)cc2O)oc2cc(O)cc(O)c12 [compound 89, Morin] | 1.77
48 | COc1cc(O)c2c(=O)c(O)c(-c3ccc(O)c(O)c3)oc2c1 [compound 93, Rhamnetin] | 4.65
49 | COc1cc2c(=O)c(-c3ccccc3)coc2cc1O [compound 98, 7-Hydroxy-6-methoxyisoflavone] | 2.57
50 | COc1ccc2c(=O)c(-c3ccccc3)coc2c1O [compound 99, 8-Hydroxy-7-methoxyisoflavone] | 3.57
51 | Oc1ccc([C@H]2COc3cc(O)ccc3C2)cc1 [compound 103, Equol] | 0.57
